# Measurements taken from paper PMC8744835, “Sterically Hindered Quaternary Phosphonium Salts (QPSs): Antimicrobial Activity and Hemolytic and Cytotoxic Properties” (International Journal of Molecular Sciences, 2021).
# Key:
# [1] = system: Bacillus cereus ATCC 10702 NCTC 8035; assay: Antimicrobial activity, serial dilution technique in Mueller–Hinton Broth 2; assay type: cell-based; conditions: average of three ± SD, - means non-active
# Method: (§1) The synthesized compounds were tested for antimicrobial activity against a number of Gram-positive bacteria, Staphylococcus aureus (Sa), Bacillus cereus (Bc) and Enterococcus faecalis (Ef), and Gram-negative bacteria, Escherichia coli (Ec) and Pseudomonas aeruginosa (Pa), including the methicillin-resistant strains S. aureus MRSA-1 (resistant to fluoroquinolones and beta-lactams) and MRSA-2 (resistant to beta-lactams). The methicillin-resistant strains S. aureus were transferred by the Republican Clinical Hospital of the Republic of Tatarstan (Kazan). The fungicidal activity against Candida albicans (Ca) and Trichophyton mentagrophytes var. gypseum (Tm) was studied. These pathogens were chosen because they are the most widespread in the food industry and the healthcare system.
# (§2) The antimicrobial activity of the QPSs was determined using the serial dilution technique in Mueller–Hinton Broth 2. The cultures used for testing included the Gram-positive bacteria Staphylococcus aureus ATCC 6538P FDA 209P, Enterococcus faecalis ATCC 2921 and Bacillus cereus ATCC 10702 NCTC 8035, the Gram-negative bacteria Escherichia coli ATCC 25922 and Pseudomonas aeruginosa ATCC 9027, and the fungi Trichophyton mentagrophytes var. gypseum 1773 and Candida albicans ATCC 10231; methicillin-resistant strains of S. aureus MRSA were obtained from hospital patients with chronic tonsillitis (MRSA-1) and sinusitis (MRSA-2) in the Republican Clinical Hospital (Kazan, Russia). […] The bacterial load was 3.0 × 10^5 cfu/mL. The results were recorded every 24 h for 5 days. The cultures were incubated at 37 °C. The experiment was repeated three times. […] The minimum inhibitory concentration (MIC) was defined as the minimum concentration of a compound that inhibits the growth of the corresponding test micro-organism. The growth of bacteria as well as the absence of growth due to the bacteriostatic action of a compound was recorded.
# [2] = system: Enterococcus faecalis ATCC 2921; assay: as above; assay type: cell-based; conditions: average of three ± SD, - means non-active
# Method: as §1, §2
# [3] = system: Escherichia coli ATCC 25922; assay: as above; assay type: cell-based; conditions: average of three ± SD, - means non-active
# Method: as §1, §2
# [4] = system: Pseudomonas aeruginosa ATCC 9027; assay: as above; assay type: cell-based; conditions: average of three ± SD, - means non-active
# Method: as §1, §2
# [5] = system: Staphylococcus aureus ATCC 6538P FDA 209P; assay: as above; assay type: cell-based; conditions: average of three ± SD, - means non-active
# Method: as §1, §2
# [6] = system: methicillin-resistant S. aureus MRSA-1; assay: as above; assay type: cell-based, Staphylococcus aureus; conditions: - means non-active
# Method: as §1, §2
# [7] = system: methicillin-resistant S. aureus MRSA-2; assay: as above; assay type: cell-based, Staphylococcus aureus; conditions: - means non-active
# Method: as §1, §2
# [8] = system: Candida albicans ATCC 10231; assay: Fungicidal activity, serial dilution technique; assay type: cell-based; conditions: average of three ± SD, - means non-active
# Method: as §1
# (§3) The antimicrobial activity of the QPSs was determined using the serial dilution technique in Mueller–Hinton Broth 2. The cultures used for testing included the Gram-positive bacteria Staphylococcus aureus ATCC 6538P FDA 209P, Enterococcus faecalis ATCC 2921 and Bacillus cereus ATCC 10702 NCTC 8035, the Gram-negative bacteria Escherichia coli ATCC 25922 and Pseudomonas aeruginosa ATCC 9027, and the fungi Trichophyton mentagrophytes var. gypseum 1773 and Candida albicans ATCC 10231; methicillin-resistant strains of S. aureus MRSA were obtained from hospital patients with chronic tonsillitis (MRSA-1) and sinusitis (MRSA-2) in the Republican Clinical Hospital (Kazan, Russia). Ciprofloxacin and ketoconazole were purchased from Sigma-Aldrich. The bacterial load was 3.0 × 10^5 cfu/mL. The results were recorded every 24 h for 5 days. The cultures were incubated at 37 °C. The experiment was repeated three times. […] The minimum inhibitory concentration (MIC) was defined as the minimum concentration of a compound that inhibits the growth of the corresponding test micro-organism. The growth of bacteria as well as the absence of growth due to the bacteriostatic action of a compound was recorded.
# [9] = system: Trichophyton mentagrophytes var. gypseum 1773; assay: Fungicidal activity, serial dilution technique; assay type: cell-based; conditions: Tm, average of three ± SD, - means non-active
# Method: as §1, §3
# [10] = system: Escherichia coli ATCC 25922; assay: Antimicrobial activity, serial dilution technique in Mueller–Hinton Broth 2; assay type: cell-based; conditions: average of three ± SD, - means non-active; remark: listed apart in the source
# [11] = MRSA-1 (resistant to fluoroquinolones and beta-lactams)
# [12] = MRSA-2 (resistant to beta-lactams)
smiles,measurement,setting,value
CCCCCCCCCCCC[P+](C(C)(C)C)(C(C)(C)C)C(C)(C)C [Compound 12b],"Minimum Bactericidal and Fungicidal Concentration (MBC, MFC), Bc",[1],62.5 ± 5.5 µg/mL
same,"Minimum Inhibitory Concentration (MIC), Bc",[1],1.9 ± 0.01 µg/mL
same,"Minimum Bactericidal and Fungicidal Concentration (MBC, MFC), Ef",[2],15.6 ± 1.3 µg/mL
same,"Minimum Inhibitory Concentration (MIC), Ef",[2],1.9 ± 0.02 µg/mL
same,"Minimum Inhibitory Concentration (MIC), Ec",[3],15.6 ± 1.3 µg/mL
same,"Minimum Bactericidal and Fungicidal Concentration (MBC, MFC), Pa",[4],125 ± 10 µg/mL
same,"Minimum Inhibitory Concentration (MIC), Pa",[4],125 ± 11 µg/mL
same,"Minimum Inhibitory Concentration (MIC), Sa",[5],0.5 ± 0.03 µg/mL
same,"Minimum Inhibitory Concentration (MIC), MRSA-1",[6]; [11],1.9 ± 0.1 µg/mL
same,"Minimum Inhibitory Concentration (MIC), MRSA-2",[7]; [12],0.5 ± 0.04 µg/mL
same,"Minimum Bactericidal and Fungicidal Concentration (MBC, MFC), MRSA-2",[7],31.3 ± 2.7 µg/mL
same,"Minimum Bactericidal and Fungicidal Concentration (MBC, MFC), Ca",[8],15.6 ± 1.3 µg/mL
same,"Minimum Inhibitory Concentration (MIC), Ca",[8],15.6 ± 1.3 µg/mL
same,"Minimum Bactericidal and Fungicidal Concentration (MBC, MFC), Tm",[9],62.5 ± 5.2 µg/mL
same,"Minimum Inhibitory Concentration (MIC), Tm",[9],31.3 ± 2.4 µg/mL
same,"Minimum Bactericidal and Fungicidal Concentration (MBC, MFC), Ec",[10],15.6 ± 1.2 µg/mL
"CCCCCCCCCCCCC[P+](C(C)(C)C)(C(C)(C)C)C(C)(C)C [Compound 13a, tri-tert-butyl(n-tridecyl)phosphonium]",MIC,"[1]; Bacillus cereus, Bc, read-out: Minimum Inhibitory Concentration (MIC), Bc",0.9 ± 0.07 µg/mL
same,"Minimum Bactericidal and Fungicidal Concentration (MBC, MFC), Bc",[1],7.8 ± 0.6 µg/mL
same,"Minimum Inhibitory Concentration (MIC), Ef",[2],3.9 ± 0.3 µg/mL
same,MBC,"[2]; Enterococcus faecalis, ATCC2921, Ef, read-out: Minimum Bactericidal and Fungicidal Concentration (MBC, MFC), Ef",7.8 ± 0.6 µg/mL
same,MIC,"[3]; Escherichia coli, ATCC25922, Ec, read-out: Minimum Inhibitory Concentration (MIC), Ec",3.9 ± 0.02 µg/mL
same,"Minimum Inhibitory Concentration (MIC), Pa",[4],15.6 ± 1.3 µg/mL
same,MBC,"[4]; Pseudomonas aeruginosa, ATCC9027, Pa, read-out: Minimum Bactericidal and Fungicidal Concentration (MBC, MFC), Pa",31.3 ± 2.4 µg/mL
same,MIC,"[5]; Staphylococcus aureus, Sa, read-out: Minimum Inhibitory Concentration (MIC), Sa",0.2 ± 0.01 µg/mL
same,"Minimum Bactericidal and Fungicidal Concentration (MBC, MFC), Sa",[5],0.5 ± 0.04 µg/mL
same,MIC,"[6]; Staphylococcus aureus, MRSA, MRSA-1 (resistant to fluoroquinolones and beta-lactams), read-out: Minimum Inhibitory Concentration (MIC), MRSA-1",0.5 ± 0.04 µg/mL
same,MBC,"[6]; Staphylococcus aureus, MRSA, MRSA-1, read-out: Minimum Bactericidal and Fungicidal Concentration (MBC, MFC), MRSA-1",0.3 ± 0.02 µg/mL
same,"Minimum Bactericidal and Fungicidal Concentration (MBC, MFC), MRSA-2",[7],0.5 ± 0.03 µg/mL
same,MIC,"[7]; Staphylococcus aureus, MRSA, MRSA-2 (resistant to beta-lactams), read-out: Minimum Inhibitory Concentration (MIC), MRSA-2",0.3 ± 0.02 µg/mL
same,"Minimum Bactericidal and Fungicidal Concentration (MBC, MFC), Ca",[8],31.3 ± 2.2 µg/mL
same,MIC,"[8]; Candida albicans, ATCC10231, Ca, read-out: Minimum Inhibitory Concentration (MIC), Ca",15.6 ± 1.2 µg/mL
same,MBC,"[9]; Trichophyton mentagrophytes, read-out: Minimum Bactericidal and Fungicidal Concentration (MBC, MFC), Tm",125 ± 10 µg/mL
same,MIC,"[9]; Trichophyton mentagrophytes, read-out: Minimum Inhibitory Concentration (MIC), Tm",125 ± 10 µg/mL
same,MBC,"[10]; Escherichia coli, ATCC25922, Ec, read-out: Minimum Bactericidal and Fungicidal Concentration (MBC, MFC), Ec",3.9 ± 0.2 µg/mL
CCCCCCCCCCCCC[P+](C(C)(C)C)(C(C)(C)C)C(C)(C)C [Compound 13b],"Minimum Bactericidal and Fungicidal Concentration (MBC, MFC), Bc",[1],31.3 ± 2.3 µg/mL
same,"Minimum Inhibitory Concentration (MIC), Bc",[1],0.5 ± 0.04 µg/mL
same,"Minimum Bactericidal and Fungicidal Concentration (MBC, MFC), Ef",[2],3.9 ± 0.3 µg/mL
same,"Minimum Inhibitory Concentration (MIC), Ef",[2],1.9 ± 0.1 µg/mL
same,"Minimum Inhibitory Concentration (MIC), Ec",[3],7.8 ± 0.6 µg/mL
same,"Minimum Bactericidal and Fungicidal Concentration (MBC, MFC), Pa",[4],31.3 ± 2.2 µg/mL
same,"Minimum Inhibitory Concentration (MIC), Pa",[4],31.3 ± 2.3 µg/mL
same,"Minimum Bactericidal and Fungicidal Concentration (MBC, MFC), Sa",[5],0.2 ± 0.01 µg/mL
same,"Minimum Inhibitory Concentration (MIC), Sa",[5],0.2 ± 0.01 µg/mL
same,"Minimum Inhibitory Concentration (MIC), MRSA-1",[6]; [11],0.3 ± 0.02 µg/mL
same,"Minimum Bactericidal and Fungicidal Concentration (MBC, MFC), MRSA-1",[6]; MRSA-1,0.5 ± 0.03 µg/mL
same,"Minimum Inhibitory Concentration (MIC), MRSA-2",[7]; [12],0.3 ± 0.01 µg/mL
same,"Minimum Bactericidal and Fungicidal Concentration (MBC, MFC), MRSA-2",[7],3.9 ± 0.3 µg/mL
same,"Minimum Bactericidal and Fungicidal Concentration (MBC, MFC), Ca",[8],7.8 ± 0.6 µg/mL
same,"Minimum Inhibitory Concentration (MIC), Ca",[8],7.8 ± 0.5 µg/mL
same,"Minimum Bactericidal and Fungicidal Concentration (MBC, MFC), Tm",[9],62.5 ± 5.3 µg/mL
same,"Minimum Inhibitory Concentration (MIC), Tm",[9],62.5 ± 5.2 µg/mL
same,"Minimum Bactericidal and Fungicidal Concentration (MBC, MFC), Ec",[10],7.8 ± 0.6 µg/mL
